# According to paper PMC11969009 (Nature Communications, 2025):
# Where “and” joins values, the source holds several entries; their conditions need not be identical. Equal entries are not always repeated. Entries after “also recorded” stand apart in the source; their conditions may differ. Where two headings read alike, the source gives them in different places.
# Key:
# [1] = system: SARS-CoV-2 clinical isolate VIC001; type: cell-based
# SARS-CoV-2 P2 strain = system: SARS-CoV-2 P2 strain; parameters: species or system C57BL/6 (WT) mice; settings: mouse, in vivo
# SARS-CoV-2 PLpro [2] = target: T1, SARS-CoV-2 PLpro (Severe acute respiratory syndrome coronavirus 2, UniProt P0DTD1); experiment: biochemical; type: binding
# SARS-CoV-2 P21 [3] = system: SARS-CoV-2 P21; parameters: species or system C57BL/6 (WT) mice; settings: mouse, in vivo
# CYP2C19 [4] = target: T2, CYP2C19 (Homo sapiens, UniProt P33261)
# T2 sequence (P33261 whole entry): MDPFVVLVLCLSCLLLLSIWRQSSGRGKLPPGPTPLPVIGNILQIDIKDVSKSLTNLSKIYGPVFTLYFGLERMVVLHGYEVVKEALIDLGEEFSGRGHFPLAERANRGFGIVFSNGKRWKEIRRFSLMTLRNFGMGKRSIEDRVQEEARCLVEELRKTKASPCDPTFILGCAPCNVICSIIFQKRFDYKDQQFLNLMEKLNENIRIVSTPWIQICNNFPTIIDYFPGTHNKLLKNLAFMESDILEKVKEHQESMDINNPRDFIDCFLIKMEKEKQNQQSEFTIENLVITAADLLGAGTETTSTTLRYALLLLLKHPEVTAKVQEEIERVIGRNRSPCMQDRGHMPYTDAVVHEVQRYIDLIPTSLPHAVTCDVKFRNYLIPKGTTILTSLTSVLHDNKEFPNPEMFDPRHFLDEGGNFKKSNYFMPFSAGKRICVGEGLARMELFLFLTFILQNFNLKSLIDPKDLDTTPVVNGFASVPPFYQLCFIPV
# CYP3A4/5 [5] = experiment: in vitro; settings: human, microsomes
# in vitro [6] = settings: mouse, microsomes, pH 7.4
# CYP2B6 [7] = target: T3, CYP2B6 (Homo sapiens, UniProt P20813)
# T3 sequence (P20813 whole entry): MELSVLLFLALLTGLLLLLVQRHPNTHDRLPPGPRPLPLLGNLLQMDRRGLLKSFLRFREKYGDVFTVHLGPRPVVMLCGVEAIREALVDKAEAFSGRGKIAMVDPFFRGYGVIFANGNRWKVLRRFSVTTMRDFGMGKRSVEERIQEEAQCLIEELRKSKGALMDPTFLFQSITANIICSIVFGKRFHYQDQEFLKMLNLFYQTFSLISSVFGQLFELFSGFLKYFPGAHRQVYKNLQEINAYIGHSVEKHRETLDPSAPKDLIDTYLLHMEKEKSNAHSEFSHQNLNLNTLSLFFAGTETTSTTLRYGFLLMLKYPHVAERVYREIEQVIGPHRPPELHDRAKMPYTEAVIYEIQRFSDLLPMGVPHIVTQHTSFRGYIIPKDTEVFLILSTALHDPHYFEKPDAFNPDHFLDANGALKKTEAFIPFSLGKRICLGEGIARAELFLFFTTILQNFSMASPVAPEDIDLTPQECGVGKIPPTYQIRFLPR
# SARS-CoV-2 P21 [8] = system: SARS-CoV-2 P21; parameters: species or system C57BL/6 (WT) mice; settings: mouse, in vivo; remark: listed apart in the source
# in vitro [9] = settings: both, human, plasma, pH 7.4
# hERG = hERG (Homo sapiens, UniProt Q12809); experiment: biochemical
# Sequence of hERG (Q12809 whole entry): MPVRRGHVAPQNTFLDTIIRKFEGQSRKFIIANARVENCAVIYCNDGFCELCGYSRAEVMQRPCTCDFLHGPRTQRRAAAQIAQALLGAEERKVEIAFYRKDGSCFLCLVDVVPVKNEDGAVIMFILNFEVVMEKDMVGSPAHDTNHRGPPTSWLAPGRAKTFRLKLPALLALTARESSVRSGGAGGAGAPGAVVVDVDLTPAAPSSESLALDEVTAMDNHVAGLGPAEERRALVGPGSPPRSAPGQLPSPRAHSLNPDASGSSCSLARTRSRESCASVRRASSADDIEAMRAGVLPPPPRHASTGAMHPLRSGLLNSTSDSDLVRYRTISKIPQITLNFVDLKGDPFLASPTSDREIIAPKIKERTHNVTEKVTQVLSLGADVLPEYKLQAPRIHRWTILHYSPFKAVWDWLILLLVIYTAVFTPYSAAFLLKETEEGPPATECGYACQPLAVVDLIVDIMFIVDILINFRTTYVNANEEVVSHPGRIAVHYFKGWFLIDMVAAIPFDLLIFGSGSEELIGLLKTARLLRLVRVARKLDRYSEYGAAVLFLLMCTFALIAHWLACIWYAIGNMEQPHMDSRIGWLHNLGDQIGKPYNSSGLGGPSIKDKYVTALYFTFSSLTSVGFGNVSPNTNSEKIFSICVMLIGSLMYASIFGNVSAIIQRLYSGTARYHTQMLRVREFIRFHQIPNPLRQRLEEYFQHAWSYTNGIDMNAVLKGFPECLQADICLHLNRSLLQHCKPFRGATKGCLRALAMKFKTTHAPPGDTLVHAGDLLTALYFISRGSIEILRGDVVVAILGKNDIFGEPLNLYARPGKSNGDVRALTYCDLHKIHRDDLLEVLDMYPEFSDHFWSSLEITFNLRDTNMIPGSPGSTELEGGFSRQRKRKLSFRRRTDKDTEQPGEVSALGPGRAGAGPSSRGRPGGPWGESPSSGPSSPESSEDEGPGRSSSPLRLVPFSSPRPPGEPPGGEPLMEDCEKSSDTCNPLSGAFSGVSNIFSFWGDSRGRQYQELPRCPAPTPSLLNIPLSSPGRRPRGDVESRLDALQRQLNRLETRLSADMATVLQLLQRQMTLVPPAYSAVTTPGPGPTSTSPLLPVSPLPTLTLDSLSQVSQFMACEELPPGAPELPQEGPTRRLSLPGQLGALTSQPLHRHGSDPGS
# CYP1A2 [10] = target: T4, CYP1A2 (Homo sapiens, UniProt P05177)
# T4 sequence (P05177 whole entry): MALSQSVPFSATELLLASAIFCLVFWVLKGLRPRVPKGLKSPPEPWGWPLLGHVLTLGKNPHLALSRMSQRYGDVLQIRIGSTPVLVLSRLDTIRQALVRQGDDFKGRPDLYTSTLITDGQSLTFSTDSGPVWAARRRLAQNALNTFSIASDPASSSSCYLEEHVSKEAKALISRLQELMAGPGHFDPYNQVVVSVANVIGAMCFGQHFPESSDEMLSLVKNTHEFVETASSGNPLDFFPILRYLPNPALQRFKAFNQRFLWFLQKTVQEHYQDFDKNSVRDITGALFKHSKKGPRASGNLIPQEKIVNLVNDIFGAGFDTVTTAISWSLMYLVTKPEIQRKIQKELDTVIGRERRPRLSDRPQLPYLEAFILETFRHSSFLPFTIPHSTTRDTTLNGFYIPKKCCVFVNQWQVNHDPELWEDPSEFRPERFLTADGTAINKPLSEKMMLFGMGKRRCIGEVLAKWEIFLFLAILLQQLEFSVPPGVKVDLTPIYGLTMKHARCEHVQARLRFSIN
# in vitro [11] = settings: mouse, hepatocytes, pH 7.4
# CYP2D6 = CYP2D6 (Homo sapiens, UniProt P10635); experiment: biochemical
# Sequence of CYP2D6 (P10635 whole entry): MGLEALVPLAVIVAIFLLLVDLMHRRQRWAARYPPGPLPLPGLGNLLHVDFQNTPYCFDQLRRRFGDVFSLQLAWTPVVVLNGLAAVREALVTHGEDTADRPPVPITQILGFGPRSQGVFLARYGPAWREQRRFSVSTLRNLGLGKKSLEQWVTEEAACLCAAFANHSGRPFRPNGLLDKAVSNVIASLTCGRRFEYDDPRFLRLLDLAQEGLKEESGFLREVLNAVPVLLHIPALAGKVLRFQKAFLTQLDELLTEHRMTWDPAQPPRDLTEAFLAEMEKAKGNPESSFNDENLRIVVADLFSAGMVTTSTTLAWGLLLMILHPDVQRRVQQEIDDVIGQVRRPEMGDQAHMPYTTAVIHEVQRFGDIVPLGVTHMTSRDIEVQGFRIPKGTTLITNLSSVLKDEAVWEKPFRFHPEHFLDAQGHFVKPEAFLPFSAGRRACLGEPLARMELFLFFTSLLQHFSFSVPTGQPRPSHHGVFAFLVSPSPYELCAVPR
# in vitro [12] = settings: human, microsomes, pH 7.4
# CYP2C19 [13] = target: T2, CYP2C19; experiment: biochemical
# CYP2C9 [14] = target: T5, CYP2C9 (Homo sapiens, UniProt P11712); experiment: biochemical
# T5 sequence (P11712 whole entry): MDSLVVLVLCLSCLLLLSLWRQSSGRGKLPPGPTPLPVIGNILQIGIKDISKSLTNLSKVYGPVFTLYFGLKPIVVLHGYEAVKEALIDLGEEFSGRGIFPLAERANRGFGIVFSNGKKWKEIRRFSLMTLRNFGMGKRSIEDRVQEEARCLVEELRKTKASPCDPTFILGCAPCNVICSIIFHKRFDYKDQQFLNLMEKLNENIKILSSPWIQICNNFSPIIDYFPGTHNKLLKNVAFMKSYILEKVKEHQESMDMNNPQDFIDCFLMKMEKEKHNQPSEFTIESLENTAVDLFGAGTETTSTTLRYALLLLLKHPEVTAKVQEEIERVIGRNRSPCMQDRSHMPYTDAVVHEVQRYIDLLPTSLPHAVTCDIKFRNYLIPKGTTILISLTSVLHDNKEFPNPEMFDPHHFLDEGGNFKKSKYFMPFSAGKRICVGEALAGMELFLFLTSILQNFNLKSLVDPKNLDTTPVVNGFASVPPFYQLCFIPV
# [15] = system: SARS-CoV-2 clinical isolate VIC001; experiment: microbe, parasite or virus in culture; type: cell-based
# in vitro [16] = settings: human, hepatocytes, pH 7.4
# SARS-CoV-2 PLpro [17] = target: T1, SARS-CoV-2 PLpro; experiment: cell-based; type: cell-based
# physchem [18] = settings: pH 7.4
# SARS-CoV-2 P21 [19] = system: SARS-CoV-2 P21; parameters: species or system C57BL/6 (WT) mice; Macrophages: unit not given here; settings: mouse, in vivo
# in vivo = settings: male, C57BL/6, mouse, po, 100 mg/kg
# CYP1A2 [20] = target: T4, CYP1A2; experiment: biochemical
# CYP2B6 [21] = target: T3, CYP2B6; experiment: biochemical
# in vitro [22] = settings: both, CD1, mouse, plasma, pH 7.4
# SARS-CoV-2 PLpro [23] = target: T1, SARS-CoV-2 PLpro; experiment: biochemical
# CYP2C8 [24] = target: T6, CYP2C8 (Homo sapiens, UniProt P10632); settings: 20 µM
# T6 sequence (P10632 whole entry): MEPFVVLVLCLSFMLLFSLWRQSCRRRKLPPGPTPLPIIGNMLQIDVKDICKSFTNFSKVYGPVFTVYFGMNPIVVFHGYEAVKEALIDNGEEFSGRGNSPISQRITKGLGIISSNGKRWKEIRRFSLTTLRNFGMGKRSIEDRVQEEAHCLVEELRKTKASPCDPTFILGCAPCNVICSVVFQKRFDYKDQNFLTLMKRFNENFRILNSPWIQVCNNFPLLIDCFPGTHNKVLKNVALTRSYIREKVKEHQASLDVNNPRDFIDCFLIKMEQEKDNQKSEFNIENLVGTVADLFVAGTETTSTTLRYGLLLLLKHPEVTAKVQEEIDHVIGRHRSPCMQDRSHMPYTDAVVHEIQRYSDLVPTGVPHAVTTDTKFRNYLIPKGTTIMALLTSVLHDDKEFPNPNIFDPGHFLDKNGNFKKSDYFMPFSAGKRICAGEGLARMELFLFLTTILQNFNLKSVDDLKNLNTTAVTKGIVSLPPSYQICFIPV
# CYP3A4/5 [25] = experiment: in vitro; settings: human, microsomes; remark: listed apart in the source
# CYP2C9 [26] = target: T5, CYP2C9; experiment: in vitro; settings: microsomes, pH 7.4
# CYP2C8 [27] = target: T6, CYP2C8; experiment: biochemical
# physchem [28] = settings: kinetic from dmso stock
compound,measurement,setting,value
"CCC(CC)COC(=O)[C@H](C)N[P@](=O)(OC[C@H]1O[C@@](C#N)(c2ccc3c(N)ncnn23)[C@H](O)[C@@H]1O)Oc1ccccc1 [Remdesivir, remdesivir]",TCID50,[1],15.3
CCON=C(c1ccc2cc(OC)ccc2c1)C1CCCN(C2CCC(O)CC2)C1 (stereo not drawn) [WEHI-P8],"antiviral activity (lung viral burden), mild model",SARS-CoV-2 P2 strain,"antiviral efficacy in inhibiting P2 virus replication, comparable to that observed with WEHI-P8; also recorded: cannot be further enhanced by concurrent ritonavir co-treatment"
same,"antiviral efficacy (lung viral burden), mild model, treatment after infection",SARS-CoV-2 P2 strain; 150 mg/kg,did not change the antiviral efficacy
same,Kd,SARS-CoV-2 PLpro [2],9 nM
same,"Response (RU), report points",SARS-CoV-2 PLpro [2],23.2517 RU and 23.7185 RU and 25.1250 RU and 25.7597 RU and 25.8254 RU and 25.1414 RU
same,gut inflammation,SARS-CoV-2 P21 [3],could not be rescued
same,"lung H&E pathology at 1 month, PASC model",SARS-CoV-2 P21 [3],reduced signs of haemorrhage and immune cell infiltrates
same,"neuroinflammation, microglial activation (IBA-1)",SARS-CoV-2 P21 [3],significantly reduced
same,right ventricle area,SARS-CoV-2 P21 [3],no significant differences between vehicle-treated or antiviral-treated groups
same,"infection-induced weight loss, PASC model",SARS-CoV-2 P21 [3]; 150 mg/kg,effectively prevented infection-induced weight loss
same,"survival of acute phase, PASC model",SARS-CoV-2 P21 [3]; 150 mg/kg,all treated animals survived the acute phase of infection
same,CYP2C19 % inhibition at 20 µM,CYP2C19 [4],No measurable inhibition
same,inhibition at 20 µM,CYP3A4/5 [5]; Time dependent CYP3A4/5 % inhibition at 20 µM,25%
same,IC50,CYP3A4/5 [5]; Time dependent CYP3A4/5 IC50 + NADPH,> 20000 nM
same,IC50,CYP3A4/5 [5]; Time dependent CYP3A4/5 IC50 - NADPH,> 20000 nM
same,half-life,in vitro [6],0.692 h
same,microsomal CLint,in vitro [6],33.4 µL/min/mg
same,CYP2B6 % inhibition at 20 µM,CYP2B6 [7],No measurable inhibition
same,NORT exploratory behaviour / preference for the novel object,SARS-CoV-2 P21 [8],significantly higher preference for the novel object
same,NORT impairment in females,SARS-CoV-2 P21 [8],partially mitigated
same,"overall distance travelled, infected females",SARS-CoV-2 P21 [8],rescued by WEHI-P8 treatment
same,recognition index,SARS-CoV-2 P21 [8],did not reveal significant sex- or drug dependent differences
same,Recognition Index (females),SARS-CoV-2 P21 [8]; 150 mg/kg,0.5 and 0.9 and 0.57 and 0.7
same,Recognition Index (males),SARS-CoV-2 P21 [8]; 150 mg/kg,0.8 and 0.529 and 0.7
same,fraction unbound,in vitro [9],0.153
same,IC50,hERG,5390 nM
same,CYP1A2 % inhibition at 20 µM,CYP1A2 [10],No measurable inhibition
same,half-life,in vitro [11],1.38 h
same,hepatocyte CLint,in vitro [11],16.8 µL/min/1e6 cells
same,IC50,CYP2D6,13800 nM
same,half-life,in vitro [12],2.4 h
same,microsomal CLint,in vitro [12],9.7 µL/min/mg
same,IC50,CYP2C19 [13],> 20000 nM
same,IC50,CYP2C9 [14],> 20000 nM
same,"Ext Data Fig 6e dose response, normalised (0 µM = 100)",[15]; 0.01 µM,105.19 and 94.34 and 104.76 and 91.8 and 114.493 and 94.2029
same,"Ext Data Fig 6e dose response, normalised (0 µM = 100)",[15]; 0.02 µM,94.81 and 103.77 and 95.24 and 103.28 and 113.043 and 95.6522
same,"Ext Data Fig 6e dose response, normalised (0 µM = 100)",[15]; 0.04 µM,90.91 and 75.47 and 93.65 and 80.33 and 105.797 and 88.4058
same,"Ext Data Fig 6e dose response, normalised (0 µM = 100)",[15]; 0.08 µM,79.22 and 86.79 and 63.49 and 63.93 and 86.9565 and 85.5072
same,"Ext Data Fig 6e dose response, normalised (0 µM = 100)",[15]; 5 µM,0
same,EC50,"[15]; Severe acute respiratory syndrome coronavirus 2, Vero, 144 h, read-out: EC50 Replicate 1",465 nM
same,EC50,"[15]; Severe acute respiratory syndrome coronavirus 2, Vero, 144 h, read-out: EC50 Replicate 2",333 nM
same,EC50,"[15]; Severe acute respiratory syndrome coronavirus 2, Vero, 144 h, read-out: EC50 Replicate 3",273 nM
same,EC50,"[15]; Severe acute respiratory syndrome coronavirus 2, Vero, read-out: Antiviral EC50 (plaque assay)",360 nM
same,EC50,"[15]; Severe acute respiratory syndrome coronavirus 2, Vero, read-out: Antiviral EC50 (plaque assay) with Pgp inhibitor",290 nM
same,EC50,[15]; read-out: EC50 Replicate 1,376 nM
same,EC50,[15]; read-out: EC50 Replicate 2,237 nM
same,EC50,[15]; read-out: EC50 Replicate 3,253 nM
same,half-life,in vitro [16],2.32 h
same,hepatocyte CLint,in vitro [16],10 µL/min/1e6 cells
same,EC50,SARS-CoV-2 PLpro [17],298 nM
same,chromatographic logD,physchem [18],3.8
same,Log2 Fold change IL-10,SARS-CoV-2 P21 [19],-6.27
same,Macrophages,SARS-CoV-2 P21 [19],10.22 and 12.4 and 14.7 and 14.8 and 13 and 14.2 and 15.1 and 11.5
same,"reduction of viral burdens, severe model",SARS-CoV-2 P21 [19],more effective than PLT at reducing viral burdens
same,"weight loss, severe model",SARS-CoV-2 P21 [19],rescuing mice from weight loss
same,"lung H&E histology, severe model",SARS-CoV-2 P21 [19]; 100 mg/kg,only mild inflammation
same,"lung IHC immune cell subsets, severe model",SARS-CoV-2 P21 [19]; 100 mg/kg,significantly reduce the numbers of macrophages and neutrophils
same,"lung cytokine and chemokine profiling, severe model",SARS-CoV-2 P21 [19]; 100 mg/kg,significantly reduce the levels of a wider range of pro-inflammatory cytokines and chemokines
same,efficacy of pre-infection regimen versus treatment after infection,SARS-CoV-2 P21 [19]; 150 mg/kg,no more effective than initiating treatment after infection; also recorded: did not confer a significant benefit compared to post-infection treatment initiation
same,"lung H&E histology, severe model",SARS-CoV-2 P21 [19]; 150 mg/kg,minimal to unremarkable histological changes
same,"lung IHC immune cell subsets, severe model",SARS-CoV-2 P21 [19]; 150 mg/kg,also reduced the number of T cells
same,AUC(0-inf),in vivo,~108 µM·h
same,AUC(0-t),in vivo,72.3 µM·h
same,Cmax,in vivo,7.07 µM
same,Tmax,in vivo,1 h
same,half-life,in vivo; Apparent t1/2,14 h
same,IC50,CYP1A2 [20],> 20000 nM
same,IC50,CYP2B6 [21],> 20000 nM
same,fraction unbound,in vitro [22],0.062
same,inhibition at 0.545 µM,"SARS-CoV-2 PLpro [23]; Conc 0.545 µM, read-out: SARS-CoV-2 PLpro, UbRh dose-response",96.1%
same,inhibition at 1.63 µM,"SARS-CoV-2 PLpro [23]; Conc 1.63 µM, read-out: SARS-CoV-2 PLpro, UbRh dose-response",97.9%
same,inhibition at 4.9 µM,"SARS-CoV-2 PLpro [23]; Conc 4.9 µM, read-out: SARS-CoV-2 PLpro, UbRh dose-response",100%
same,IC50,SARS-CoV-2 PLpro [23]; IC50 (UbRh) SARS-CoV-2 PLpro,12 nM
same,inhibition at […],"SARS-CoV-2 PLpro [23]; read-out: SARS-CoV-2 PLpro, UbRh dose-response",95.1% and 83.6%
same,CYP2C8 % inhibition at 20 µM,CYP2C8 [24],No measurable inhibition
same,inhibition at 20 µM,"CYP3A4/5 [25]; pH 7.4, CYP3A4/5 % inhibition at 20 µM",28%
same,IC50,"CYP3A4/5 [25]; pH 7.4, CYP3A4/5 IC50",> 20000 nM
same,inhibition at 20 µM,CYP2C9 [26],26%
same,IC50,CYP2C8 [27],> 20000 nM
same,solubility kinetic,"physchem [28]; pH 2, aqueous buffer",> 320 µM
same,solubility kinetic,"physchem [28]; pH 6.5, aqueous buffer",160 to 320 µM
